Data as given in patent US20240240209A1, “SYNTHESIS OF ENANTIOPURE CIS-A-IRONE FROM A RENEWABLE CARBON SOURCE” (Agency for Science, Technology and Research, priority 2021, published 2024).
Changes are numbered by the printed parent chain.

Assays:
pMT6 = assay: Methylation and cyclization of structurally similar terpenoids by E. coli cell lysate overexpressing pMT6; type: biochemical, Streptomyces blastmyceticus; details: GFP lysate as control
Description: Using E. coli cell lysate overexpressing pMT6, a range of structurally similar terpenoids for methylation and cyclization reaction was assayed (FIG. 21a). E. coli lysate overexpressing green fluorescence protein was used as a control. […] Citral was not stable and was reduced to geraniol in the presence of cell lysate. […] Compound identity was searched against the National Institute of Standards and Technology (NIST) library. […] Lastly, for the monoterpene ketone, geranylacetone, with saturated C7-C8 bond, multiple methylated products were detected based on the molecular ion.

pMT7 = pMT7 (Streptomyces blastmyceticus, UniProt A0A077K7L1, A202L/L180A/L273V/S182E/Y200F/Y65F); assay: biochemical
Description: (§1) It was calculated by dividing the pMT7 activity where no additive was added. […] It was calculated by dividing the pMT7 and pMT10 activity where no additive was added. […] All the purified enzyme reactions were done in triplicates. […] The bar chart represents the mean value of replicated reactions.
The steady-state kinetic parameters of pMT7 were determined (Table 3). […] Since pMT7 is an hexamer in solution^10, its oligomeric state before and after the reaction was examined.
(§2) Following enzyme purification, a 100 μl enzymatic reaction was setup with a final concentration of 0.5 mg/ml of enzyme, 40 mg/L psi-ionone, 0.2 mM SAM, 100 mM Tris (pH 7), 10 mM MgCl2 and 15 mM NaCl. The reaction was done in 0.2 ml PCR strips and incubated at 28° C., 1200 rpm overnight. Alongside, a control without enzyme (with 40% glycerol only) was included as negative control. The next day, cis-α-irone was extracted with 100 μl of ethyl acetate and 50 μl organic layer taken for GCMS analysis. For enzyme characterization, similar enzymatic reaction was performed, with varying concentration of psi-ionone (2-40 mg/L) and SAM (10-100 μM), and the reaction was stopped after 2 h incubation at 28° C. to ensure the enzymatic conversion is still within linear range.

pMT10 = pMT10 (Streptomyces blastmyceticus, UniProt A0A077K7L1, A202L/C156A/L180A/L273V/S182E/T91P/Y200F/Y65F); assay: biochemical
Description: as §1, §2

[1] = target: T1, Streptomyces blastmyceticus O-methyltransferase TleD (pMT1, SEQ ID No. 3) variant pMT10, Y200F S182E L273V L180A A202L Y65F C156A T91P, SEQ ID No. 12 (Streptomyces blastmyceticus, UniProt A0A077K7L1, A202L/C156A/L180A/L273V/S182E/T91P/Y200F/Y65F); assay: Steady-state kinetics of purified pMT10; type: biochemical; details: pH 7, 28° C., 2 h, psi-ionone 2-40 mg/L, SAM 10-100 μM
T1 sequence (A0A077K7L1 1-289 Y65F/T91P/C156A/L180A/S182E/Y200F/A202L/L273V): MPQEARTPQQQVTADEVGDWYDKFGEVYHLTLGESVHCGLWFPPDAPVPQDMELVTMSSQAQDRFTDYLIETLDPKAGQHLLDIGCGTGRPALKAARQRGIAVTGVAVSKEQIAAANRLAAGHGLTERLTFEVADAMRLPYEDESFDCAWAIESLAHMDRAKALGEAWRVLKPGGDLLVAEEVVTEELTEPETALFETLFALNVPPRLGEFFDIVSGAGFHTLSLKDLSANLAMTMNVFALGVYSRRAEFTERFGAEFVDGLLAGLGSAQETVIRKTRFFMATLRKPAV
Description: (§3) His-tag protein purification was carried out according to the manufacturer's instruction (Cube Biotech). For each enzyme, it was overexpressed in 200 ml of ZYM autoinduction media with 5 mM lactose at 20° C. for 36 hrs. Following that, cells were pelleted and resuspended with 10 ml of His-binding buffer (50 mM Tris, pH 8, 0.5M NaCl and 20 mM imidazole) supplemented with 1 mg/ml lysozyme and 3 U/ml of benzonase nuclease (Merck) and treated for 1 hour (hr) at 20° C., 300 rpm. The cells were further lysed by 2 cycles of freeze-thawing with freezing at −80° C. for 4 hrs and thawing at room temperature for 45 mins. The supernatant (soluble fraction) was obtained by centrifuging at 15,000 g for 30 mins at 4° C. […] Protein quantification and purity were determined through micro BCA assay (Pierce) and running SDS-PAGE, respectively.
(§4) To determine the purified enzyme kinetics and in vivo production, the reaction mixture was extracted with 0.5× or 1× volume of ethyl acetate and the organic phase was diluted appropriately before subjected to GCMS analysis. The samples were analyzed on an Agilent Intuvo 9000 GC system equipped with Agilent DB-WAX Ultra Inert Intuvo GC column (30 m×250 μm×0.25 μm) and Agilent 5977B mass spectrometry with high efficiency source. […] The concentration of psi-ionone and irone were calculated by interpolating with a standard curve prepared by synthetic standards.

[2] = target: T2, Streptomyces blastmyceticus O-methyltransferase TleD (pMT1, SEQ ID No. 3) variant pMT7, Y200F S182E L273V L180A A202L Y65F, SEQ ID No. 9 (Streptomyces blastmyceticus, UniProt A0A077K7L1, A202L/L180A/L273V/S182E/Y200F/Y65F); assay: Steady-state kinetics of purified pMT7; type: biochemical; details: pH 7, 28° C., 2 h
T2 sequence (A0A077K7L1 1-289 Y65F/L180A/S182E/Y200F/A202L/L273V): T1 sequence (A0A077K7L1 1-289 Y65F/T91P/C156A/L180A/S182E/Y200F/A202L/L273V) with P91T, A156C
Description: as §3, §4

[3] = SAH analogues (0-200 μM) or excess α-irone supplemented

pMT7, sequence (A0A077K7L1 entry or part of it Y65F/L180A/S182E/Y200F/A202L/L273V): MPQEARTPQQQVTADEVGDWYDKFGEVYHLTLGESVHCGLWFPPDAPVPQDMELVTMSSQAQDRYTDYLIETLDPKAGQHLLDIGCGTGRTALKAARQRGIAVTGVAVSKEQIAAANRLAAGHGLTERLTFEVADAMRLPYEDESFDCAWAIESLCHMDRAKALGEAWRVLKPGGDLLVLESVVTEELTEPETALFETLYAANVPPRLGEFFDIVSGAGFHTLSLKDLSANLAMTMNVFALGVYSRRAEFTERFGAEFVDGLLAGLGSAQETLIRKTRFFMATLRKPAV
pMT10, sequence (A0A077K7L1 entry or part of it Y65F/T91P/C156A/L180A/S182E/Y200F/A202L/L273V): as the sequence (A0A077K7L1 entry or part of it Y65F/L180A/S182E/Y200F/A202L/L273V) above

Question: How did the “methylated products in pMT6 reaction (SPME-GCMS)” value (“methylated products” below) (pMT6) turn out when `CC(C)=CCCC(C)=CC=O` [Citral] was run?
Answer: The value was “not stable”.

Question: For `Nc1ncnc2c1ncn2[C@@H]1O[C@H](CSCC[C@H](N)C(=O)O)[C@@H](O)[C@H]1O` [SAH, S-adenosyl-L-homocysteine], which IC50 (pMT7) is on record?
Answer: The IC50 was 4.9 µM.

Question: And the “effect on pMT7 activity” value (pMT7; 2 μM SAH supplemented)?
Answer: Its value is “led to a reduction in pMT7 activity”.

Question: And the “effect on pMT7 methyltransferase activity” value (pMT7; 20 µM SAH supplemented)?
Answer: Its value is “nearly abolished the methyltransferase activity”.

Question: And the IC50 (pMT10)?
Answer: The IC50 was 3.1 µM.

Question: Which results are given for `C[S+](CC[C@H](N)C(=O)[O-])C[C@H]1O[C@@H](n2cnc3c(N)ncnc32)[C@H](O)[C@@H]1O` (stereo partly drawn) [SAM, S-adenosylmethionine]?
Answer: Km [1]: 30.5 ± 1.3 µM; Km ([2]; psi-ionone 2-40 mg/L, SAM 10-100 μM): 54.6 µM

Question: How did the “effect on pMT7 methyltransferase activity” value (pMT7; [3]) turn out when `Nc1ncnc2nc[nH]c12` [adenine] was run?
Answer: The value was “did not alter the methyltransferase activity significantly”.

Question: `Nc1ncnc2c1ncn2[C@@H]1O[C@H](CO)[C@@H](O)[C@H]1O` [adenosine] was tested. Which “effect on pMT7 methyltransferase activity” value (pMT7; [3]) did it give?
Answer: The value was “did not alter the methyltransferase activity significantly”.

Question: For `CC(C)=CCC/C(C)=C/CO` [geraniol], which “methylated products” value (pMT6) is on record?
Answer: Its value is “detected methylated products”.

Question: Which “methylated products” value (pMT6) does the source give for `CC(=O)CC/C=C(\C)CCC=C(C)C` [geranylacetone] here?
Answer: The value was “detected methylated products”.

Question: How did the “effect on pMT7 methyltransferase activity” value (pMT7; [3]) turn out when `N[C@@H](CCS)C(=O)O` [homocysteine] was run?
Answer: The value was “did not alter the methyltransferase activity significantly”.

Question: How did the “methylated products” value (pMT6) turn out when `C=CC(C)(O)CCC=C(C)C` (stereo not drawn) [linalool] was run?
Answer: The value was “detected methylated products”.

Question: Which kcat ([2]; Table 3) does the source give for `CC(=O)/C=C/C=C(\C)CCC=C(C)C` [psi-ionone] here?
Answer: The kcat was 4.4 ± 0.2 ×10^3 h^−1.

Question: How did the “effect on pMT7 methyltransferase activity” value (pMT7; [3]) turn out when `CC(=O)/C=C/C1C(C)=CCC(C)C1(C)C` (stereo not drawn) [α-irone] was run?
Answer: Its value is “did not alter the methyltransferase activity significantly”.
